This is an account of results in ChEMBL document CHEMBL4376858, “Structure-Activity Relationships of Novel Thiazole-Based Modafinil Analogues Acting at Monoamine Transporters” (J Med Chem, 2020).

For data set [1], the target named is T1, Sodium-dependent noradrenaline transporter (Homo sapiens, UniProt P23975). Nature of the data set: Inhibition of wild type human NET expressed in HEK293 cells assessed as inhibition of [3H]-MPP+ reuptake preincubated for 8 mins followed by [3H]MPP+ addition and measured after 3 mins by liquid scintillation counting analysis. Format: cell-based.
T1 sequence (P23975 whole entry): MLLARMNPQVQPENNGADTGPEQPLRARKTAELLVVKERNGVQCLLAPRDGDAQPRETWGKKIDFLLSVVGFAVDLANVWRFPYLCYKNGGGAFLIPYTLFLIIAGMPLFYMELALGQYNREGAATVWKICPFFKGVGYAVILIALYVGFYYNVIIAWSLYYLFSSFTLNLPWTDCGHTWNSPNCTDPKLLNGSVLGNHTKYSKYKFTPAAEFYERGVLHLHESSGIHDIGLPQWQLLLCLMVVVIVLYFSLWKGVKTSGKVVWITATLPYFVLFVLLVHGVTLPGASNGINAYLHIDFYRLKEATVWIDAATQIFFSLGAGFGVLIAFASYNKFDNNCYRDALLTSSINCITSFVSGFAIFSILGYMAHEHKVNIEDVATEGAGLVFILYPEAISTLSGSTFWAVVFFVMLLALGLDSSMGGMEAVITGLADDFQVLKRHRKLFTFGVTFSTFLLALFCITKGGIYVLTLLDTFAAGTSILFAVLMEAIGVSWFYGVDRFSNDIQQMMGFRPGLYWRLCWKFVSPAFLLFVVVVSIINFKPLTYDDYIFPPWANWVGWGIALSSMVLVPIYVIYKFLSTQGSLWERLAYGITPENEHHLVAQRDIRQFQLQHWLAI
The target in data set [2] is Sodium-dependent serotonin transporter (Homo sapiens, UniProt P31645). Format: cell-based, HEK293.
Chain of Sodium-dependent serotonin transporter (P31645 whole entry): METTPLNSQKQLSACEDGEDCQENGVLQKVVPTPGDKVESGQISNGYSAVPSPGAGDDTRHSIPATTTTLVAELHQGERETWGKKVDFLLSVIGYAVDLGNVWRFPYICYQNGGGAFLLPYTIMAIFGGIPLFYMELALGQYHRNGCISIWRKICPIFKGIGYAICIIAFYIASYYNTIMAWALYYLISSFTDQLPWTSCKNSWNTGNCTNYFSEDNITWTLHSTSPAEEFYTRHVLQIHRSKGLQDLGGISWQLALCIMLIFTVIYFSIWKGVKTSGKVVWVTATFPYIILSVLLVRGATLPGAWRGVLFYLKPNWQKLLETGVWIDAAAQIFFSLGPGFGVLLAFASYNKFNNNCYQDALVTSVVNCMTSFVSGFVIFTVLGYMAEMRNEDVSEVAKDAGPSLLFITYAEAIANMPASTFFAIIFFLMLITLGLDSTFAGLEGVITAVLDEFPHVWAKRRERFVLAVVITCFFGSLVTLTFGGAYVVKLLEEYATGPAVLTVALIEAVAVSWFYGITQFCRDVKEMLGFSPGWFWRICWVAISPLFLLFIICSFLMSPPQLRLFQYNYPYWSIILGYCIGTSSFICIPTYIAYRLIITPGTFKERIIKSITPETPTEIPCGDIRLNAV
Description: Inhibition of wild type human SERT expressed in HEK293 cells assessed as inhibition of [3H]-5HT reuptake preincubated for 5 mins followed by [3H]5HT addition and measured after 1 min by liquid scintillation counting analysis
Data set [3] concerns the target Sodium-dependent dopamine transporter (Homo sapiens, UniProt Q01959). Nature of the data set: Inhibition of wild type human dopamine transporter expressed in HEK293 cells assessed as inhibition of [3H]dopamine reuptake preincubated for 5 mins followed by [3H]dopamine addition and measured after 1 min by liquid scintillation analysis. In kind it is cell-based. Conditions: read-out: IC50.

A short description of data set [4]: Half life in Sprague-Dawley rat at 10 mg/kg, ip compound dissolved in DMSO/Tween 80/Saline by HPLC-MS analysis. Format: ADME, organism-based. The following applies: in vivo.
A short description of data set [5]: AUC(0 to infinity) in Sprague-Dawley rat at 10 mg/kg, ip compound dissolved in DMSO/Tween 80/Saline by HPLC-MS analysis. Format: ADME, organism-based. More on the design: dose 10 mg/kg, time infinity, route intraperitoneal. The following applies: in vivo.
Data set [6] concerns the target T1, Sodium-dependent noradrenaline transporter. Nature of the data set: Inhibition of wild type human NET expressed in HEK293 cells assessed as inhibition of [3H]-MPP+ reuptake preincubated for 5 mins followed by [3H]MPP+ addition and measured after 3 mins by liquid scintillation counting analysis. In kind it is cell-based.
Data set [7] in a line: Plasma concentration in Sprague-Dawley rat at 10 mg/kg, ip compound dissolved in DMSO/Tween 80/Saline measured after 1 hr by HPLC-MS analysis. In kind it is ADME, organism-based.
Data set [8] in a line: Cardiotoxicity in human Cor.4U hiPSC-CM cells assessed as effect on action potential duration at 10 uM measured after 30 mins by FluoVolt dye based fluorescence assay. The following applies: 0.5 h. In kind it is toxicity.
Data set [9] in a line: Cardiotoxicity in human Cor.4U hiPSC-CM cells assessed as effect on action potential shape at 10 uM measured after 30 mins by FluoVolt dye based fluorescence assay. In kind it is toxicity. The following applies: 0.5 h.
Data set [10] is described as follows: Cardiotoxicity in human Cor.4U hiPSC-CM cells assessed as early after depolarization at 10 uM measured after 30 mins by FluoVolt dye based fluorescence assay. In kind it is toxicity. Conditions: 0.5 h.
Data set [11] relates to Cortical neurone. Nature of the data set: Cytotoxicity in rat cortical neuron assessed as inhibition of cell viability incubated for 72 hrs by Hoechst 33342 staining based ArrayScan analysis.
Data set [12] can be described thus: Neurotoxicity in rat cortical neuron assessed as inhibition of neurite total length per neuron incubated for 72 hrs by Hoechst 33342 staining based ArrayScan analysis. Format: toxicity, cell-based, Cortical neurone. Conditions: rat cortical neurons.
A short description of data set [13]: Neurotoxicity in rat cortical neuron assessed as inhibition of valid neuron count incubated for 72 hrs by Hoechst 33342 staining based ArrayScan analysis. Format: toxicity, cell-based, Cortical neurone. The following applies: rat cortical neurons.
Data set [14] in a line: Neurotoxicity in rat cortical neuron assessed as inhibition of neurite outgrowth by measuring mean neurite average length incubated for 72 hrs by Hoechst 33342 staining based ArrayScan analysis. Format: toxicity, cell-based, Cortical neurone. Conditions: rat cortical neurons.

Structures are written as SMILES.

Chain of Sodium-dependent dopamine transporter (Q01959 whole entry): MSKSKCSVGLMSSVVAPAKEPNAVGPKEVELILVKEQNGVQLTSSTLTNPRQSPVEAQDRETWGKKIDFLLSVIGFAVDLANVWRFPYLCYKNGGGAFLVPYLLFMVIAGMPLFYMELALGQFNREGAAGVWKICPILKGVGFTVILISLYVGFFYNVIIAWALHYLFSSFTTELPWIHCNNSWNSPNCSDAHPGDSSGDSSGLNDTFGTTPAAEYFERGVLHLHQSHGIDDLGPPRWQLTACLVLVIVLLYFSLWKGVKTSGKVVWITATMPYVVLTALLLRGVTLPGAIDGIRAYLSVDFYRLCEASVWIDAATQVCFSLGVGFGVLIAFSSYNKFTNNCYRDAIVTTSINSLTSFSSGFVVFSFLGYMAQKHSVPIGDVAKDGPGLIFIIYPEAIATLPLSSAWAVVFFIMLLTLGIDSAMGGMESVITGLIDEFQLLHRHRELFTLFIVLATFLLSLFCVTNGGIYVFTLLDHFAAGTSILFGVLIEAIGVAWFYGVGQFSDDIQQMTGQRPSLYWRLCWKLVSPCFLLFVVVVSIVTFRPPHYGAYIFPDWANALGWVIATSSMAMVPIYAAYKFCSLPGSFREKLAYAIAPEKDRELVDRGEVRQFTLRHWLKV

Regarding `Cc1nc(C[S+]([O-])C(c2ccccc2)c2ccccc2)cs1` (stereo not drawn), the IC50 in [1] is 174 µM; in data set [2] (hek293) it was “Not Active”; in [3], 3.25 µM.
For the compound `[O-][S+](Cc1cncs1)C(c1ccccc1)c1ccccc1` (stereo not drawn), the half-inhibitory concentration (IC50) in data set [3] stood at 4.61 µM. For the same compound, the half-life in [4] is 54 min. The total exposure AUC(0-inf) in data set [5] was found to be 13.5 µM·h.
As for `NC(=O)C[S@@+]([O-])C(c1ccccc1)c1ccccc1` [ARMODAFINIL], the IC50 in data set [6] (read-out: IC50) came to 170 µM. This compound gave a half-life in data set [4] of 24 min. In data set [5], the AUC(0-inf) was 1.18 µM·h. In data set [7], this compound registered a concentration at 1 h of 3900 ng/mL.
Consider `[O-][S@@+](Cc1cscn1)[C@H](c1ccccc1)c1ccc(Br)cc1`, for which the Activity entry in data set [8], in data set [9] and in data set [10] was “Non-Toxic” throughout. Further, the IC50 result was “Not Active” in data set [6] (hek293), “Not Active” in data set [2] (hek293) and 2.99 µM in [3].
`[O-][S@+](Cc1cscn1)[C@H](c1ccccc1)c1ccc(Br)cc1`: the Activity result in data set [8], in [9] and in data set [10] was “Non-Toxic” each time. Moreover, the 50% inhibitory concentration (IC50) in [6] (read-out: IC50) is 52.6 µM; in [2] (read-out: IC50), 58.6 µM; in [3], 1.09 µM.
For the compound `CN(C)CCCN1c2ccccc2Sc2ccc(Cl)cc21` [CHLORPROMAZINE], the Activity result in data set [11] is reported as “Non-Toxic”. Moreover, the IC50 at 72 h in data set [12] was 13.8 µM; in data set [13] it was 7.99 µM; in data set [14], 9.02 µM.
On to `[O-][S+](Cc1nccs1)C(c1ccccc1)c1ccccc1` (stereo not drawn), for which the IC50 was 420 µM in data set [1], “Not Active” in [2] (hek293) and 14.7 µM in data set [3].
Turning to `COc1ccc([C@@H](c2ccccc2)[S@@+]([O-])Cc2cncs2)cc1`, the half-inhibitory concentration (IC50) result in data set [6] (hek293) was “Not Active”; in data set [2] (read-out: IC50), 363 µM; in data set [3], 12.2 µM.
For `COc1ccc(C(c2ccc(OC)cc2)[S+]([O-])Cc2csc(C3CC3)n2)cc1` (stereo not drawn), the IC50 entry in data set [6] (hek293) was “Not Active”; in data set [2] (hek293), “Not Active”; in data set [3] it was 105 µM.
As to `[O-][S+](Cc1cscn1)C(c1ccc(Cl)cc1)c1ccc(Cl)cc1` (stereo not drawn), the IC50 in [6] (read-out: IC50) is 107 µM; in [2] (hek293), “Not Active”; in data set [3], 5.04 µM.
On the same counts, the results for `[O-][S@+](Cc1cncs1)[C@@H](c1ccccc1)c1ccc(Br)cc1` are 365 µM, “Not Active” and 22.4 µM.
As for `[O-][S@+](Cc1cncs1)C(c1ccc(Cl)cc1)c1ccc(Cl)cc1`, the IC50 entry in data set [6] (hek293) is “Not Active”; in [2] (hek293) it was “Not Active”; in [3], 37.8 µM.
With `[O-][S+](Cc1nccs1)C(c1ccc(Cl)cc1)c1ccc(Cl)cc1` (stereo not drawn), the IC50 entry is “Not Active” in data set [6] (hek293), “Not Active” in data set [2] (hek293) and 9.58 µM in data set [3].
For the compound `[O-][S@+](Cc1cscn1)[C@@H](c1ccccc1)c1ccc(Br)cc1`, the Activity entry in data set [8], in data set [9] and in [10] was “Non-Toxic” each time. For the same compound, the IC50 result in [6] (hek293) was “Not Active”; in [2] (hek293), “Not Active”; in [3] it was 63.7 µM.
On to `Cc1ccc([C@@H](c2ccccc2)[S@@+]([O-])Cc2cncs2)cc1`, for which the results for the IC50 entry in [6] (hek293), in [2] (hek293) and in data set [3] were “Not Active”, “Not Active” and 6 µM, respectively.
In the case of `COC(=O)Nc1nc2ccc(C(=O)c3cccs3)cc2[nH]1` [NOCODAZOLE], in [11], the Activity entry is “Toxic”. For the same compound, the results for the IC50 at 72 h in data set [12], in [13] and in data set [14] were 0.0997 µM, 2.22 µM and 0.097 µM, respectively.
Consider `[O-][S@+](Cc1cncs1)C(c1ccc(F)cc1)c1ccc(F)cc1`, for which the IC50 result was “Not Active” in data set [6] (hek293), “Not Active” in [2] (hek293) and 22.5 µM in data set [3].
`[O-][S+](Cc1cscn1)C(c1ccccc1)c1ccc(Br)cc1` (racemic): the results for the IC50 in data set [6] (read-out: IC50), in data set [2] (hek293) and in data set [3] were 109 µM, “Not Active” and 1.85 µM, respectively.
On to `Cc1ccc(C(c2ccc(C)cc2)[S+]([O-])Cc2cncs2)cc1` (stereo in doubt; 34a), for which the IC50 result is “Not Active” in data set [6] (hek293), 264 µM in [2] (read-out: IC50) and 6.8 µM in [3].
For the compound `[O-][S@@+](Cc1cncs1)[C@@H](c1ccccc1)c1ccc(C(F)(F)F)cc1`, the results for the IC50 entry in data set [6] (hek293), in [2] (hek293) and in data set [3] were “Not Active”, “Not Active” and 39.5 µM, respectively.
On to `Cc1ccc(C(c2ccc(C)cc2)[S+]([O-])Cc2cscn2)cc1` (stereo not drawn), for which the results for the IC50 result in data set [6] (hek293), in data set [2] (hek293) and in data set [3] were “Not Active”, “Not Active” and 7.32 µM, respectively.
Consider `[O-][S+](Cc1csc(C2CC2)n1)C(c1ccc(Cl)cc1)c1ccc(Cl)cc1` (stereo not drawn), for which the figures for the IC50 result in data set [6] (hek293), in data set [2] (hek293) and in [3] were “Not Active”, “Not Active” and 14 µM, respectively.
